# Legend:
# corn = test: Test B pre/postemergence corn; format: in vivo, Zea mays
# Outline: (§1)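 Test chemicals in a non-phytotoxic solvent mixture with surfactant were sprayed preemergence onto planted seeds and postemergence onto plants 2 to 18 cm tall (1- to 4-leaf stage). After twelve to sixteen days in a greenhouse, injury was visually rated against untreated controls from 0 (no effect) to 10 (complete control).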
# sugar beet = test: Test B pre/postemergence sugar beet; format: in vivo, Beta vulgaris
# Outline: as §1
# wild oat = test: Test B pre/postemergence wild oat; format: in vivo, Avena fatua
# Outline: as §1
# rape = test: Test B pre/postemergence rape; format: in vivo, Brassica napus
# Outline: as §1
# bedstraw = test: Test B pre/postemergence bedstraw; format: in vivo, Galium aparine
# Outline: as §1
# blackgrass = test: Test B pre/postemergence blackgrass; format: in vivo, Alopecurus myosuroides
# Outline: as §1
# purple nutsedge = test: Test B pre/postemergence purple nutsedge; format: in vivo, Cyperus rotundus
# Outline: as §1
# surinam grass = test: Test B pre/postemergence surinam grass; format: in vivo, Brachiaria decumbens
# Outline: as §1
# morningglory = test: Test B pre/postemergence morningglory; format: in vivo, Ipomoea hederacea
# Outline: as §1
# cocklebur = test: Test B pre/postemergence cocklebur; format: in vivo, Xanthium strumarium
# Outline: as §1
# pigweed = test: Test B pre/postemergence pigweed; format: in vivo, Amaranthus retroflexus
# Outline: as §1
# crabgrass = test: Test B pre/postemergence crabgrass; format: in vivo, Digitaria sanguinalis
# Outline: as §1
# velvetleaf = test: Test B pre/postemergence velvetleaf; format: in vivo, Abutilon theophrasti
# Outline: as §1
# soybean = test: Test B pre/postemergence soybean; format: in vivo, Glycine max
# Outline: as §1
# giant foxtail = test: Test B pre/postemergence giant foxtail; format: in vivo, Setaria faberii
# Outline: as §1
# wheat = test: Test B pre/postemergence wheat; format: in vivo, Triticum aestivum
# Outline: as §1
# [1] = Postemergence, Rate 62 g/ha, scale 0 to 10, 0 is no effect, 10 is complete control
# [2] = Postemergence, Rate 125 g/ha, scale of 0 to 10 where 0 is no effect and 10 is complete control
# [3] = Preemergence, Rate 125 g/ha, scale of 0 to 10 where 0 is no effect and 10 is complete control
# [4] = Preemergence, Rate 250 g/ha, scale 0 (no effect) to 10 (complete control)
# [5] = Rate 62 g/ha, Preemergence, scale 0 to 10
# [6] = Rate 250 g/ha, Postemergence, scale 0 to 10, 0 is no effect, 10 is complete control
# [7] = Rate 500 g/ha, Postemergence, scale 0 to 10, 0 is no effect, 10 is complete control
# [8] = Rate 500 g/ha, Preemergence, scale 0 to 10 (0 no effect, 10 complete control)
smiles,measurement,setting,value
CC(C)N(C(=O)n1oc(=O)n(C[C@H](C)Cl)c1=O)c1ccc(Cl)cc1 [Compound 748],"Plant response rating, Corn",corn; [1],0
same,Corn plant response rating,corn; [2],0
same,"Plant response rating, Corn",corn; [3],0
same,Corn plant response rating,corn; [4],0
same,Corn plant response rating,corn; [5],0
same,Corn plant response rating,corn; [6],0
same,Corn plant response rating,corn; [7],0
same,Corn plant response rating,corn; [8],4
same,"Plant response rating, Sugarbeets",sugar beet; [1],0
same,Sugarbeets plant response rating,sugar beet; [2],2
same,"Plant response rating, Sugarbeets",sugar beet; [3],0
same,Sugarbeets plant response rating,sugar beet; [4],2
same,Sugarbeets plant response rating,sugar beet; [5],0
same,Sugarbeets plant response rating,sugar beet; [6],6
same,Sugarbeets plant response rating,sugar beet; [7],7
same,Sugarbeets plant response rating,sugar beet; [8],7
same,"Plant response rating, Wild oats",wild oat; [1],0
same,Wild oats plant response rating,wild oat; [2],0
same,"Plant response rating, Wild oats",wild oat; [3],2
same,Wild oats plant response rating,wild oat; [4],2
same,Wild oats plant response rating,wild oat; [5],0
same,Wild oats plant response rating,wild oat; [6],0
same,Wild oats plant response rating,wild oat; [7],0
same,Wild oats plant response rating,wild oat; [8],8
same,"Plant response rating, Rape",rape; [1],0
same,Rape plant response rating,rape; [2],3
same,"Plant response rating, Rape",rape; [3],0
same,Rape plant response rating,rape; [4],0
same,Rape plant response rating,rape; [5],0
same,Rape plant response rating,rape; [6],6
same,Rape plant response rating,rape; [7],7
same,Rape plant response rating,rape; [8],7
same,"Plant response rating, Bedstraw",bedstraw; [1],5
same,Bedstraw plant response rating,bedstraw; [2],6
same,"Plant response rating, Bedstraw",bedstraw; [3],0
same,Bedstraw plant response rating,bedstraw; [4],0
same,Bedstraw plant response rating,bedstraw; [6],9
same,Bedstraw plant response rating,bedstraw; [7],9
same,Bedstraw plant response rating,bedstraw; [8],0
same,"Plant response rating, Blackgrass",blackgrass; [1],5
same,Blackgrass plant response rating,blackgrass; [2],6
same,"Plant response rating, Blackgrass",blackgrass; [3],3
same,Blackgrass plant response rating,blackgrass; [5],0
same,Blackgrass plant response rating,blackgrass; [6],7
same,Blackgrass plant response rating,blackgrass; [7],8
same,Blackgrass plant response rating,blackgrass; [8],9
same,"Plant response rating, Nutsedge",purple nutsedge; [1],0
same,Nutsedge plant response rating,purple nutsedge; [2],0
same,"Plant response rating, Nutsedge",purple nutsedge; [3],0
same,Nutsedge plant response rating,purple nutsedge; [4],0
same,Nutsedge plant response rating,purple nutsedge; [5],0
same,Nutsedge plant response rating,purple nutsedge; [6],0
same,Nutsedge plant response rating,purple nutsedge; [7],0
same,Nutsedge plant response rating,purple nutsedge; [8],2
same,"Plant response rating, B. signalgrass",surinam grass; [1],2
same,B. signalgrass plant response rating,surinam grass; [2],2
same,B. signalgrass plant response rating,"surinam grass; Preemergence, Rate 62 g/ha, scale of 0 to 10 where 0 is no effect and 10 is complete control",0
same,"Plant response rating, B. signalgrass",surinam grass; [3],3
same,B. signalgrass plant response rating,surinam grass; [4],3
same,B. signalgrass plant response rating,surinam grass; [6],4
same,B. signalgrass plant response rating,surinam grass; [7],7
same,B. signalgrass plant response rating,surinam grass; [8],10
same,"Plant response rating, Morningglory",morningglory; [1],0
same,Morningglory plant response rating,morningglory; [2],6
same,"Plant response rating, Morningglory",morningglory; [3],0
same,Morningglory plant response rating,morningglory; [4],0
same,Morningglory plant response rating,morningglory; [5],0
same,Morningglory plant response rating,morningglory; [6],6
same,Morningglory plant response rating,morningglory; [7],7
same,Morningglory plant response rating,morningglory; [8],0
same,"Plant response rating, Cocklebur",cocklebur; [1],0
same,Cocklebur plant response rating,cocklebur; [2],0
same,"Plant response rating, Cocklebur",cocklebur; [3],0
same,Cocklebur plant response rating,cocklebur; [4],0
same,Cocklebur plant response rating,cocklebur; [5],0
same,Cocklebur plant response rating,cocklebur; [6],0
same,Cocklebur plant response rating,cocklebur; [8],0
same,"Plant response rating, Redroot pigweed",pigweed; [1],2
same,Redroot pigweed plant response rating,pigweed; [2],4
same,"Plant response rating, Redroot pigweed",pigweed; [3],10
same,Redroot pigweed plant response rating,pigweed; [4],10
same,Redroot pigweed plant response rating,pigweed; [5],4
same,Redroot pigweed plant response rating,pigweed; [6],6
same,Redroot pigweed plant response rating,pigweed; [7],8
same,Redroot pigweed plant response rating,pigweed; [8],10
same,"Plant response rating, Crabgrass",crabgrass; [1],2
same,Crabgrass plant response rating,crabgrass; [2],3
same,"Plant response rating, Crabgrass",crabgrass; [3],10
same,Crabgrass plant response rating,crabgrass; [4],10
same,Crabgrass plant response rating,crabgrass; [5],9
same,Crabgrass plant response rating,crabgrass; [6],8
same,Crabgrass plant response rating,crabgrass; [7],9
same,Crabgrass plant response rating,crabgrass; [8],10
same,"Plant response rating, Velvetleaf",velvetleaf; [1],0
same,Velvetleaf plant response rating,velvetleaf; [2],0
same,"Plant response rating, Velvetleaf",velvetleaf; [3],0
same,Velvetleaf plant response rating,velvetleaf; [4],0
same,Velvetleaf plant response rating,velvetleaf; [5],0
same,Velvetleaf plant response rating,velvetleaf; [6],0
same,Velvetleaf plant response rating,velvetleaf; [7],4
same,Velvetleaf plant response rating,velvetleaf; [8],0
same,"Plant response rating, Soybean",soybean; [1],3
same,Soybean plant response rating,soybean; [2],3
same,"Plant response rating, Soybean",soybean; [3],0
same,Soybean plant response rating,soybean; [4],0
same,Soybean plant response rating,soybean; [5],0
same,Soybean plant response rating,soybean; [6],4
same,Soybean plant response rating,soybean; [7],5
same,Soybean plant response rating,soybean; [8],0
same,"Plant response rating, Giant foxtail",giant foxtail; [1],2
same,Giant foxtail plant response rating,giant foxtail; [2],6
same,"Plant response rating, Giant foxtail",giant foxtail; [3],10
same,Giant foxtail plant response rating,giant foxtail; [4],10
same,Giant foxtail plant response rating,giant foxtail; [5],9
same,Giant foxtail plant response rating,giant foxtail; [6],8
same,Giant foxtail plant response rating,giant foxtail; [7],9
same,Giant foxtail plant response rating,giant foxtail; [8],10
same,"Plant response rating, Wheat",wheat; [1],0
same,Wheat plant response rating,wheat; [2],0
same,"Plant response rating, Wheat",wheat; [3],0
same,Wheat plant response rating,wheat; [4],0
same,Wheat plant response rating,wheat; [5],0
same,Wheat plant response rating,wheat; [6],0
same,Wheat plant response rating,wheat; [8],5

# From US6737383B1, “Herbicidal oxadiazolidines” (priority 1999, dated 2004)
